Here are results for eight compounds from PubChem BioAssay (NCI).

Test systems include UO-31 renal; SF-295 CNS; NCI-H522 lung; HCC-2998 colon; UACC-257 melanoma; LOX IMVI melanoma; ACHN renal; MALME-3M melanoma; T-47D breast; SNB-19 CNS; KM12 colon; HS 578T breast; A498 renal; SK-OV-3 ovarian; MCF7 breast; SF-539 CNS; SR leukemia; CCRF-CEM leukemia; OVCAR-8 ovarian.
Common to all, as to assay: inhibition of tumour cell growth, NCI panel, 48 h

Structures are written as SMILES.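 Dose response: 5 concentrations. Exposure: 48 h. Format: 96-well plates. Endpoint: linear interpolation; highest concentration if not reached. Definition used: TGI = concentration required for complete inhibition of growth.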

Turning to `Cc1[nH]n(-c2ccccc2)c(=O)c1C(N(CCc1ccccc1)C1=NCC(C)S1)(C(F)(F)F)C(F)(F)F` (stereo not given), the TGI in the test with UO-31 renal was 25.3 µM; in the test with SF-295 CNS it was 84.2 µM; in the test on NCI-H522 lung it was 28.2 µM; in the test on HCC-2998 colon, 34 µM; in the test with UACC-257 melanoma, 56.7 µM; in the test on LOX IMVI melanoma, above 100 µM. Also, the TGI in the test with ACHN renal is 79.3 µM; in the test with MALME-3M melanoma it was 97.9 µM; with T-47D breast it was 43.1 µM; in the test with SNB-19 CNS it was above 100 µM; with KM12 colon, above 100 µM; in the test on HS 578T breast it was 88.4 µM. The TGI in the test with A498 renal was 30.9 µM; in the test on SK-OV-3 ovarian, 95.1 µM; with MCF7 breast, above 100 µM; in the test on SF-539 CNS, 32.3 µM; in the test with SR leukemia, 90.4 µM; in the test on CCRF-CEM leukemia it was 68.7 µM.

Turning to `COC(=O)N/N=C(\c1ccccc1)c1ccc(OC)cc1`, the TGI in the test with UO-31 renal, with NCI-H522 lung, in the test with HCC-2998 colon, in the test on UACC-257 melanoma, with LOX IMVI melanoma and in the test with MALME-3M melanoma was above 100 µM throughout. In addition, the TGI in the test with T-47D breast, in the test with SNB-19 CNS, in the test on KM12 colon, in the test on HS 578T breast, in the test with A498 renal and in the test on SK-OV-3 ovarian was above 100 µM each time. Moreover, the TGI in the test on MCF7 breast, in the test with SF-539 CNS, with OVCAR-8 ovarian, with SR leukemia and with CCRF-CEM leukemia was above 100 µM each time.

As for `COc1ccc(/C=C2\N=C(c3ccccc3)OC2=O)cc1OC(C)=O`, the TGI is above 100 µM in the test on UO-31 renal; above 100 µM with HCC-2998 colon; above 100 µM with UACC-257 melanoma; above 100 µM in the test on LOX IMVI melanoma; above 100 µM in the test with ACHN renal; 68.6 µM with MALME-3M melanoma. Also, the TGI with T-47D breast, with SNB-19 CNS, in the test on HS 578T breast, with A498 renal, in the test on SK-OV-3 ovarian and in the test on MCF7 breast was above 100 µM in each case. The TGI with SF-539 CNS is above 100 µM; with OVCAR-8 ovarian, above 100 µM; with SR leukemia, 45 µM; in the test on CCRF-CEM leukemia it was 74.4 µM.

`C#CC(O)/C=C/C(O)CCCC(O)CC#CC(O)C#CC(O)CCCC(O)/C=C/CCCCCC(=O)CCCCCCCCCCCCCC(O)C(O)C#CC(=O)O` (stereo not given): the TGI is above 50 µM with UO-31 renal; above 50 µM in the test on SF-295 CNS; 18.3 µM in the test on NCI-H522 lung; above 50 µM in the test on HCC-2998 colon; above 50 µM in the test on UACC-257 melanoma; 24.5 µM with LOX IMVI melanoma. In addition, the TGI is above 50 µM in the test on ACHN renal; above 50 µM with MALME-3M melanoma; 35 µM in the test with T-47D breast; above 50 µM in the test on SNB-19 CNS; above 50 µM with KM12 colon; 33.3 µM in the test with HS 578T breast. Further, the TGI in the test with A498 renal was above 50 µM; in the test with SK-OV-3 ovarian it was above 50 µM; with MCF7 breast it was 38.7 µM; in the test with OVCAR-8 ovarian it was above 50 µM; with SR leukemia, 26.1 µM; with CCRF-CEM leukemia it was 34.2 µM.

In the case of `CNc1ncnc2c1cnn2CCCCO`, the TGI in the test on UO-31 renal, with SF-295 CNS, with NCI-H522 lung, in the test with HCC-2998 colon, with UACC-257 melanoma and in the test on LOX IMVI melanoma was above 100 µM each time. For the same compound, the TGI with ACHN renal, in the test with MALME-3M melanoma, in the test on T-47D breast, in the test with SNB-19 CNS, with HS 578T breast and in the test with A498 renal was above 100 µM each time. The TGI with SK-OV-3 ovarian, with MCF7 breast, with SF-539 CNS, with SR leukemia and in the test on CCRF-CEM leukemia was above 100 µM each time.

In the case of `COc1ccc(C(=C2C(=O)N(c3ccccc3)C(=O)C2=C(C)C)c2ccc(OC)cc2)cc1`, the TGI is above 31 µM in the test with UO-31 renal; above 49 µM in the test on SF-295 CNS; 15.7 µM in the test on NCI-H522 lung; above 52 µM with HCC-2998 colon; above 47.5 µM in the test with UACC-257 melanoma; above 31.3 µM in the test with LOX IMVI melanoma. Besides, the TGI in the test on ACHN renal is above 31.7 µM; with MALME-3M melanoma it was above 100 µM; in the test on T-47D breast, above 100 µM; with SNB-19 CNS it was above 56.2 µM; in the test on KM12 colon it was above 54.4 µM; with HS 578T breast, above 39 µM. Also, the TGI was 16 µM with A498 renal; above 56.1 µM in the test with SK-OV-3 ovarian; above 45.4 µM in the test on MCF7 breast; above 24.2 µM in the test on SF-539 CNS; above 32.1 µM in the test on OVCAR-8 ovarian; above 100 µM in the test with SR leukemia.

`Nc1c(Br)cc(-c2nc3ccccc3s2)cc1Br`: the TGI with UO-31 renal, with SF-295 CNS, in the test on NCI-H522 lung, in the test with HCC-2998 colon, in the test with UACC-257 melanoma and in the test with ACHN renal was above 100 µM each time. For the same compound, the TGI with MALME-3M melanoma, in the test on T-47D breast, with SNB-19 CNS, in the test on KM12 colon, in the test on HS 578T breast and in the test with A498 renal was above 100 µM each time. The TGI in the test with SK-OV-3 ovarian, with MCF7 breast, in the test on SF-539 CNS, in the test on OVCAR-8 ovarian, in the test on SR leukemia and with CCRF-CEM leukemia was above 100 µM each time.

With `O=C(CSc1nc2ccc(I)cc2c(=O)n1Cc1ccccc1)NN1C(=O)c2ccccc2C1=O`, the TGI is 6.14 µM in the test on UO-31 renal; 29.4 µM in the test with SF-295 CNS; 34.1 µM in the test with NCI-H522 lung; above 100 µM in the test on HCC-2998 colon; 51.4 µM in the test with UACC-257 melanoma; 44.9 µM with LOX IMVI melanoma. Besides, the TGI is 68.9 µM in the test with ACHN renal; 62.8 µM in the test on MALME-3M melanoma; 50 µM with T-47D breast; 57.3 µM in the test with SNB-19 CNS; above 100 µM with KM12 colon; 43.1 µM in the test with HS 578T breast. Moreover, the TGI was 35.7 µM in the test on A498 renal; 29.1 µM in the test with SK-OV-3 ovarian; above 100 µM in the test with MCF7 breast; 15.5 µM with SF-539 CNS; 34.1 µM in the test with OVCAR-8 ovarian; above 100 µM in the test with SR leukemia.
